Assays:
[1] = tested on: Met5A (human non-malignant mesothelioma cell); assay: Cell viability assay (MTT), Met5A; assay type: cell-based; conditions: Met5A, 1, 10, 100 μM, 24 hr or 48 hr; FIG. 3A
Experimental: (§1) NCI-H28 which is a cell line of human malignant pleural mesothelioma and Met5A which is a cell line of human non-malignant mesothelioma were used. These cells were purchased from American Type Culture Collection (Manassas, Va., USA). The cells were cultured in Roswell Park Memorial Institute (RPMI)-1640 medium added with 0.003% (w/v) L-glutamine. The cells were incubated in a medium added with 10% (v/v) heat-inactivated bovine serum, penicillin (final concentration, 100 U/ml) and streptomycin (final concentration, 0.1 mg/ml) in a humid environment under 5% CO2 and 95% air at 37° C.
(§2) The cell viability was evaluated according to previous report (Nogi Y, et al., Cell Physiol Biochem 2012; 30: 61-74.) by using 3-(4,5-dimethyl-2-thiazolyl)-2,5-diphenyl-2H-tetrazolium bromide (MTT). The measurement was performed by treating Met5A (human non-malignant mesothelioma cell) and NCI-H28 (human malignant mesothelioma cell) for 24 hr or 48 hr while changing the concentration of DPPE to 0, 1 μM, 10 μM and 100 μM.

[2] = tested on: NCI-H28 (human malignant mesothelioma cell); assay: Cell viability assay (MTT), NCI-H28; assay type: cell-based; conditions: NCI-H28, 1, 10, 100 μM, 24 hr or 48 hr; FIG. 3B
Experimental: as §1, §2

[3] = tested on: Met5A (human non-malignant mesothelioma cell); assay: TUNEL staining, Met5A; assay type: cell-based; conditions: 30 μM and 100 μM, 48 hr, FIG. 4
Experimental: (§3) NCI-H28 which is a cell line of human malignant pleural mesothelioma and […] which is a cell line of human non-malignant mesothelioma were used. These cells were purchased from American Type Culture Collection (Manassas, Va., USA). The cells were cultured in Roswell Park Memorial Institute (RPMI)-1640 medium added with 0.003% (w/v) L-glutamine. The cells were incubated in a medium added with 10% (v/v) heat-inactivated bovine serum, penicillin (final concentration, 100 U/ml) and streptomycin (final concentration, 0.1 mg/ml) in a humid environment under 5% CO2 and 95% air at 37° C. To detect in situ DNA fragmentation to be the index of apoptosis, TUNEL staining was performed using In Situ Apoptosis Detection Kit (Takara Bio; Otsu, Japan). The cells fixed and membrane-permeabilized were incubated with terminal deoxynucleotidyl transferase and fluorescein isothiocyanate (FITC)-deoxyuridinetriphosphate at 37° C. for 90 min. FITC signal was visualized by a confocal laser microscope (LSM 510; Carl Zeiss Co., Ltd., Oberkochen, Germany). The cells used were […] (human non-malignant mesothelioma cell) and NCI-H28 (human malignant mesothelioma cell), after a treatment for 48 hr by changing the concentration of DPPE to 0, 30 μM and 100 μM.

[4] = tested on: NCI-H28 (human malignant mesothelioma cell); assay: TUNEL staining, NCI-H28; assay type: cell-based; conditions: NCI-H28, 30 μM and 100 μM, 48 hr; FIG. 4
Experimental: as §3

Human recombinant PP2A = assay: Assay of PP2A activity under cell-free conditions (p-NPP substrate); conditions: 100 μM, preincubated 37° C. 30 min, p-NPP 0.5 mM 60 min, FIG. 1A
Excerpt: (§4) Human recombinant PP2A was purchased from Millipore (Billerica, Mass., USA). Human PTP1B was cloned to pGEX-6P-3 vector having a GST tag on the NH2 terminal, and expressed in competent E. coli 3L21 (DE3) suitable for transformation and protein expression. GST fused PTP1B was affinity-purified using glutathione sepharose 4B (GE Healthcare Bio-Science KK, Tokyo, Japan). They were reacted with p-nitrophenylphosphate (p-NPP) (Sigma, St. Louis, Mo., USA) as a substrate, and each phosphatase activity was measured. PP2A (0.2 U/well) or PTP1B (1 mg/well) was preincubated in a reaction medium at 37° C. for 30 min. in the presence and absence of a phosphatase inhibitor (okadaic acid; 2 nM, sodium vanadate; 1 μM) and, phosphatidylethanolamine (DAPE, DLPE, DOPE, DPPE; 100 μM, all obtained from Avanti Polar Lipids, Inc. (Alabaster, Ala., USA)). • reaction medium for PP2A: 50 mM Tris-HCl, 0.1 mM EGTA, 0.1% (v/v) 2-mercaptoethanol, pH 7.0 • reaction medium for PTP1B: 50 mM HEPES, 1 mM EDTA, 50 mM NaCl, 1 mM dithiothreitol, pH 7.2
(§5) Then, p-NPP (0.5 mM for PP2A, 10 mM for PTP1B) was added to the reaction medium and incubation was continued for 60 min. The reaction was discontinued by adding 0.1N NaOH. Dephosphorylated p-NPP, namely, p-NP, was quantified at absorbance 405 nm by using SpectraMax PLUS384 (Molecular Devices, Sunnyvale, Calif., USA).

Human PTP1B (GST fused) = molecular target: T1, Human PTP1B (GST fused) (Homo sapiens, UniProt P18031); assay: Assay of PTP1B activity under cell-free conditions (p-NPP substrate); conditions: 100 μM, preincubated 37° C. 30 min, p-NPP 10 mM 60 min, FIG. 1B
T1 sequence (P18031 1-435): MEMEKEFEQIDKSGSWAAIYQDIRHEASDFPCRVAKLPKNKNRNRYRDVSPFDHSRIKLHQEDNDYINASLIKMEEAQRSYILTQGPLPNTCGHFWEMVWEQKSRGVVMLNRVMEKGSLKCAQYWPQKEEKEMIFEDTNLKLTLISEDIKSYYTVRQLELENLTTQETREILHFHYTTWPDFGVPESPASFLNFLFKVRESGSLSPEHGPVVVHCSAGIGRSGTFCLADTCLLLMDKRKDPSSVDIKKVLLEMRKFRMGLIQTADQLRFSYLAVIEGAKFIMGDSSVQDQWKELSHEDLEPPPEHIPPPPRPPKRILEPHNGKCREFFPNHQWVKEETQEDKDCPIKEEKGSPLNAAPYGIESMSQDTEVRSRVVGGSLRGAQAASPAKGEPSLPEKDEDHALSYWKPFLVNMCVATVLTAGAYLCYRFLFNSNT
Excerpt: as §4, §5

## CCCCCC/C=C\CCCCCCCC(=O)OC[C@H](COP(=O)(O)OCCN)OC(=O)CCCCCCC/C=C\CCCCCC [DPPE, 1,2-dipalmitoleoyl-sn-glycero-3-phosphoethanolamine]
[1]
  cell survival rate (MTT): almost uninfluential on the non-malignant mesothelioma cell
[2]
  cell survival rate (MTT): induces concentration-dependent cell death in the malignant mesothelioma cell
[3]
  apoptosis (TUNEL-stained cells relative to total cells): does not induce apoptosis of the non-malignant mesothelioma cell
[4]
  apoptosis (TUNEL-stained cells relative to total cells): induces apoptosis of the malignant mesothelioma cell
Human recombinant PP2A
  PP2A activation enhancing action (phosphatase activity relative to control): strong PP2A activation enhancing action
Human PTP1B (GST fused)
  PTP1B activation enhancing action (phosphatase activity relative to control): PTP1B activation enhancing action

— patent publication US20170027968A1, “ANTI-CANCER AGENT” (KTN BIOTEC, INC., priority 2013, published 2017)
